The nature of series [1]: log P determination by HPLC on reverse-phase column (EEC Directive 79/831 Annex V.A8). The series is classed as physicochemical. The following applies: HPLC on reverse-phase column. Summed up: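 Reverse-phase C18 HPLC at 43 °C, following EEC Directive 79/831 Annex V.A8. Acidic LC-MS used pH 2.7 eluents (0.1% aqueous formic acid and acetonitrile with 0.1% formic acid) on a 10–95% acetonitrile linear gradient. Log P was interpolated linearly from retention times against unbranched C3–C16 alkan-2-ones of known log P.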

For a further series, the system named is Heliothis virescens eggs. In words: Heliothis virescens test. The following applies: 300 ppm; eggs treated. The series is classed as in vivo. The procedure:
(§1) An appropriate preparation of active compound is prepared by mixing the active compound with the stated amounts of solvent and diluting the concentrate with […] water to the desired concentration.
The Heliothis virescens eggs are treated with a preparation of active compound at the desired concentration.
(§2) After the desired time the effect in % is determined. 100% means that all of the eggs/larvae have been killed; 0% means that no eggs/larvae have been killed.

The test system of the next series is Myzus persicae. The experiment in a line: Myzus persicae test. The series is classed as in vivo. The following applies: 30 ppm; preparation provided for consumption. The procedure: as §1
The Myzus persicae is provided with a preparation of active compound at the desired concentration for consumption.
After the desired time the effect in % is determined. 100% means that all of the aphids have been killed; 0% means that no aphids have been killed.

The test system of another series is Aedes aegypti larvae. In words: Aedes aegypti test. The series is classed as in vivo. The following applies: 30 ppm; larvae treated. Here is the method: as §1
The Aedes aegypti larvae are treated with a preparation of active compound at the desired concentration.
After the desired time the effect in % is determined. 100% means that all of the Aedes aegypti have been killed; 0% means that no Aedes aegypti have been killed.

Series [2] concerns Diabrotica undecimpunctata eggs. In words: Diabrotica undecimpunctata test. The following applies: 300 ppm; eggs treated. Format: in vivo. The procedure: as §1
The Diabrotica undecimpunctata eggs are treated with a preparation of active compound at the desired concentration.
as §2

Series [3] deals with caterpillars of the armyworm (Spodoptera frugiperda). In words: Spodoptera frugiperda test (cabbage leaves, immersion). The following applies: cabbage leaves immersed. The series is classed as in vivo. The procedure:
(§3) An appropriate preparation of active compound is prepared by mixing 1 part by weight of active compound with the stated amounts of solvent and emulsifier and diluting the concentrate with emulsifier-containing water to the desired concentration.
Cabbage leaves (Brassica oleracea) are treated by immersion into a preparation of active compound at the desired concentration and, are populated with caterpillars of the armyworm (Spodoptera frugiperda) while the leaves are still wet.
After the desired time the effect in % is determined. 100% means that all of the caterpillars have been killed; 0% means that no caterpillars have been killed.
Cabbage leaves (Brassica oleracea) are treated by immersion into a preparation of active compound at the desired concentration and are populated with caterpillars of the armyworm (Spodoptera frugiperda) while the leaves are still wet.

The subject of series [4] is larvae of the leafminer fly (Liriomyza trifolii). The experiment in a line: Liriomyza trifolii test. The series is classed as in vivo. The following applies: 500 ppm; infested bean leaf discs sprayed. Here is the method:
as §3
Bean leaf discs (Phaseolus vulgaris) infested by larvae of the leafminer fly (Liriomyza trifolii) are sprayed with a preparation of active compound at the desired concentration.
After the desired time the effect in % is determined. 100% means that all of the leafminer flies have been killed; 0% means that no leafminer flies have been killed.

Each structure is given as a SMILES string.

For `Cc1cc(Br)cc(C(=O)NC(C)C)c1NC(=O)c1cc(Cn2cc(C(F)(F)C(F)(F)F)c(C(F)(F)C(F)(F)F)n2)nn1-c1ncccc1Cl` [I-1-13], in series [1], the logP stood at 4.98. Also, the “Kill level after 6-7 d in %” value in the series on Heliothis virescens eggs and in the series on Myzus persicae was 100% throughout. In addition, the “Kill level after 2-4 d in %” value in the series on Aedes aegypti larvae came out at 100%. Besides, the “Kill level after 2-5 d in %” value in series [2] is reported as 100%. The “Kill level after 7 d in %” value in series [3] (100 g/ha) is reported as 100%.
Regarding `CNC(=O)c1cc(Cl)cc(C)c1NC(=O)c1cc(Cn2cc(Cl)cn2)nn1-c1ncccc1Cl` [I-1-4], the logP in series [1] is recorded as 2.54. The figures for the “Kill level after 7 d in %” value in series [3] (100 g/ha) and in series [4] were 100% and 95%, respectively.
Compound `CNC(=O)c1cc(Cl)cc(C)c1NC(=O)c1cc(Cn2cc(C(F)(F)C(F)(F)F)c(C(F)(F)C(F)(F)F)n2)nn1-c1ncccc1Cl` [I-1-3] displayed a logP in series [1] of 4.39. The “Kill level after 7 d in %” value in series [3] (0.8 g/ha) turned out to be 100%; in series [3] (100 g/ha), 100%; in series [4], 98%.
In series [1], `Cc1cc(Br)cc(C(=O)NC(C)C)c1NC(=O)c1cc(Cn2nc(C(F)(F)F)nc2C(F)(F)F)nn1-c1ncccc1Cl` [I-1-22] displayed a log partition coefficient (logP) of 3.91. Further, the entries for the “Kill level after 7 d in %” value in series [3] (4 g/ha), in series [3] (100 g/ha) and in series [4] were 100%, 100% and 98%, respectively.
As to `Cc1cc(Cl)cc(C(=O)NC(C)C)c1NC(=O)c1cc(Cn2cc(I)c(C(F)(F)C(F)(F)F)n2)nn1-c1ncccc1Cl` [I-1-14], the logP in series [1] worked out at 4.29. In addition, the “Kill level after 6-7 d in %” value in the series on Heliothis virescens eggs and with Myzus persicae was 100% throughout. Besides, the “Kill level after 2-4 d in %” value with Aedes aegypti larvae is given as 100%. Besides, the “Kill level after 2-5 d in %” value in series [2] is 100%. Moreover, the “Kill level after 7 d in %” value in series [3] (100 g/ha) was 100%.
With `Cc1cc(Cl)cc(C(=O)NC(C)C)c1NC(=O)c1cc(Cn2cc(Cl)c(C(F)(F)F)n2)nn1-c1ncccc1Cl` [I-1-15], in series [1], the logP worked out at 3.85. Also, the “Kill level after 6-7 d in %” value in the series on Heliothis virescens eggs and in the series with Myzus persicae was 100% throughout. For the same compound, in the series with Aedes aegypti larvae, the “Kill level after 2-4 d in %” value is on record as 100%. In addition, the “Kill level after 2-5 d in %” value in series [2] stood at 100%. Moreover, the “Kill level after 7 d in %” value in series [3] (100 g/ha) came out at 100%.
With `CNC(=O)c1cc(Cl)cc(C)c1NC(=O)c1cc(Cn2cc(Cl)c(C(F)(F)C(F)(F)F)n2)nn1-c1ncccc1Cl` [I-1-30], the logP in series [1] is on record as 3.77. In addition, in series [3] (100 g/ha), the “Kill level after 7 d in %” value is listed as 100%.
`CNC(=O)c1cc(Br)cc(C)c1NC(=O)c1cc(Cn2nc(C(F)(F)C(F)(F)F)cc2C(F)(F)C(F)(F)F)nn1-c1ncccc1Cl` [I-1-24] gave a log partition coefficient (logP) in series [1] of 4.49. Moreover, the “Kill level after 7 d in %” value in series [3] (100 g/ha) was 100%.
Turning to `CNC(=O)c1cc(Br)cc(C)c1NC(=O)c1cc(Cn2nc(C(F)(F)C(F)(F)F)nc2C(F)(F)C(F)(F)F)nn1-c1ncccc1Cl` [I-1-39], the logP in series [1] is 4.31. Besides, the “Kill level after 7 d in %” value in series [3] (100 g/ha) was found to be 100%.
The matching figures for `Cc1cc(Cl)cc(C(=O)NC(C)C)c1NC(=O)c1cc(Cn2cc(F)cn2)nn1-c1ncccc1Cl` [I-1-7]: 2.70 and 100%.
`CNC(=O)c1cc(Cl)cc(C)c1NC(=O)c1cc(Cn2ccc(C(F)(F)C(F)(F)F)n2)nn1-c1ncccc1Cl` [I-1-19] gave a logP in series [1] of 3.29. Also, the “Kill level after 7 d in %” value in series [3] (100 g/ha) is 100%.

By logP is commonly meant a log measure of how a compound divides between an organic and an aqueous phase. A low value points to lower lipophilicity.
